One may read the IC50 as the concentration that gives 50% inhibition. A higher IC50 goes with weaker potency.

Bridge positions count the residues as written; N and C are the ends. Peptide text beside a SMILES is read from it.

The assay has as its target T1, IL17-RE-IL-17C (Homo sapiens, UniProt Q8NFR9+Q9P0M4).
T1 sequence (Q9P0M4 whole entry): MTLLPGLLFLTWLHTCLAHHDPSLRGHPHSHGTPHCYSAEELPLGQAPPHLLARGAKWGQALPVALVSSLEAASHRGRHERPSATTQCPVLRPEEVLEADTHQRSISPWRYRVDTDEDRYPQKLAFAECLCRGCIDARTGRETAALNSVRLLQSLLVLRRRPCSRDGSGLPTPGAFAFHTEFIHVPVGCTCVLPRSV
T1 sequence (Q8NFR9 whole entry): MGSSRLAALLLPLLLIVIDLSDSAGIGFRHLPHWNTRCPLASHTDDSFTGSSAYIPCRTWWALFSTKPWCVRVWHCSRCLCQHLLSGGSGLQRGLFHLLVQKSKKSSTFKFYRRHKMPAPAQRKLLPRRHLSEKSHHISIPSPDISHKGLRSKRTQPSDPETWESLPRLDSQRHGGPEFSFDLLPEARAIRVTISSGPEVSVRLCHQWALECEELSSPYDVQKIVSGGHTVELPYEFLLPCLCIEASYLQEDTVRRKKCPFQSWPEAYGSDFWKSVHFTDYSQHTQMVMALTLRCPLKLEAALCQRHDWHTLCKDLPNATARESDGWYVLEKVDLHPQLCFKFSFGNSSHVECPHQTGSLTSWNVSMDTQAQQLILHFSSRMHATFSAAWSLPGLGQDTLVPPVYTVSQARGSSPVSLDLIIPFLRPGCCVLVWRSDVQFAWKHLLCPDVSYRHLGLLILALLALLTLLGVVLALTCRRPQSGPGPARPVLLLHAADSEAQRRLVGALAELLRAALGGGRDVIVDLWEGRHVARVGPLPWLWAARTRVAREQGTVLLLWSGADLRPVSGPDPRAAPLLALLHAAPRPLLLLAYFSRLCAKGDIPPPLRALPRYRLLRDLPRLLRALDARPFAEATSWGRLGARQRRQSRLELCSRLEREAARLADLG
The assay is described as follows: Inhibition of interleukin-17RE/biotinylated IL-17C protein-protein interaction (unknown origin) incubated for 1 hrs by competitive ELISA. It is filed as protein-complex assay.
The molecule `CC[C@@H](C)[C@@H]1NC(=O)[C@H](CCCNC(=N)N)NC(=O)[C@H](Cc2ccc(O)cc2)NC(=O)[C@H](Cc2ccc(O)cc2)NC(=O)[C@H](CCC(N)=O)NC(=O)[C@H](Cc2c[nH]cn2)NC(=O)[C@H](Cc2ccc(O)cc2)NC(=O)CSC[C@@H](C(=O)NCC(N)=O)NC(=O)CNC(=O)[C@H](CC(C)C)NC(=O)[C@H](CC(N)=O)NC(=O)CNC(=O)[C@H](Cc2ccc(O)cc2)NC(=O)[C@H](CC(C)C)NC1=O` gave a half-inhibitory concentration (IC50) of 5.6 nM.

`CC[C@H](C)[C@@H]1NC(=O)[C@H](CCCNC(=N)N)NC(=O)[C@H](Cc2ccc(O)cc2)NC(=O)[C@H](Cc2ccc(O)cc2)NC(=O)[C@H](Cc2c[nH]cn2)NC(=O)[C@H](Cc2c[nH]cn2)NC(=O)[C@H](Cc2ccc(O)cc2)NC(=O)CSC[C@@H](C(=O)NCC(N)=O)NC(=O)CNC(=O)[C@H](CC(C)C)NC(=O)[C@H](CC(=O)O)NC(=O)CNC(=O)[C@H](Cc2ccc(O)cc2)NC(=O)[C@H](CC(C)C)NC1=O` ({CH2CO}-YHHYYRILYGDLGCG-NH2; thioether N-14) gave an IC50 of 83 nM.

As to `CC[C@H](C)[C@@H]1NC(=O)[C@H](CCCNC(=N)N)NC(=O)[C@H](Cc2ccc(O)cc2)NC(=O)[C@H](Cc2ccc(O)cc2)NC(=O)[C@H](Cc2c[nH]cn2)NC(=O)[C@H](Cc2c[nH]cn2)NC(=O)[C@H](Cc2ccc(O)cc2)NC(=O)CSC[C@@H](C(=O)NCC(N)=O)NC(=O)CNC(=O)[C@H](CC(C)C)NC(=O)[C@H](CCC(=O)O)NC(=O)CNC(=O)[C@H](Cc2ccc(O)cc2)NC(=O)[C@H](Cc2ccccc2)NC1=O` ({CH2CO}-YHHYYRIFYGELGCG-NH2; thioether N-14), the IC50 is 23300 nM.

Turning to `CC[C@H](C)[C@@H]1NC(=O)[C@H](CC(N)=O)NC(=O)[C@H](Cc2ccc(O)cc2)NC(=O)[C@H](Cc2ccc(O)cc2)NC(=O)[C@H](Cc2c[nH]cn2)NC(=O)[C@H](Cc2c[nH]cn2)NC(=O)[C@H](Cc2ccc(O)cc2)NC(=O)CSC[C@@H](C(=O)NCC(N)=O)NC(=O)CNC(=O)[C@H](CC(C)C)NC(=O)[C@H](CCC(=O)O)NC(=O)CNC(=O)[C@H](Cc2ccc(O)cc2)NC(=O)[C@H](CC(C)C)NC1=O` ({CH2CO}-YHHYYNILYGELGCG-NH2; thioether N-14), the IC50 is 2360 nM.

`CC(C)C[C@@H]1NC(=O)[C@H](C)NC(=O)[C@H](CCCNC(=N)N)NC(=O)[C@H](Cc2ccc(O)cc2)NC(=O)[C@H](Cc2ccc(O)cc2)NC(=O)[C@H](Cc2c[nH]cn2)NC(=O)[C@H](Cc2c[nH]cn2)NC(=O)[C@H](Cc2ccc(O)cc2)NC(=O)CSC[C@@H](C(=O)NCC(N)=O)NC(=O)CNC(=O)[C@H](CC(C)C)NC(=O)[C@H](CCC(=O)O)NC(=O)CNC(=O)[C@H](Cc2ccc(O)cc2)NC1=O` ({CH2CO}-YHHYYRALYGELGCG-NH2; thioether N-14): the 50% inhibitory concentration (IC50) came out at 254 nM.

Molecule `CC[C@H](C)[C@@H]1NC(=O)[C@H](CCCNC(=N)N)NC(=O)[C@H](Cc2ccc(O)cc2)NC(=O)[C@H](Cc2ccc(O)cc2)NC(=O)[C@H](CCCNC(=N)N)NC(=O)[C@H](Cc2c[nH]cn2)NC(=O)[C@H](Cc2ccc(O)cc2)NC(=O)CSC[C@@H](C(=O)NCC(N)=O)NC(=O)CNC(=O)[C@H](CC(C)C)NC(=O)[C@H](CCC(=O)O)NC(=O)CNC(=O)[C@H](Cc2ccc(O)cc2)NC(=O)[C@H](CC(C)C)NC1=O` ({CH2CO}-YHRYYRILYGELGCG-NH2; thioether N-14) registered an IC50 of 108 nM.

`CC[C@H](C)[C@@H]1NC(=O)[C@H](CCCNC(=N)N)NC(=O)[C@H](Cc2ccc(O)cc2)NC(=O)[C@H](Cc2ccc(O)cc2)NC(=O)[C@H](Cc2c[nH]cn2)NC(=O)[C@H](Cc2c[nH]cn2)NC(=O)[C@H](Cc2ccc(O)cc2)NC(=O)CSC[C@@H](C(=O)NCC(N)=O)NC(=O)CNC(=O)[C@H](CC(C)C)NC(=O)[C@H](CCCCN)NC(=O)CNC(=O)[C@H](Cc2ccc(O)cc2)NC(=O)[C@H](CC(C)C)NC1=O` ({CH2CO}-YHHYYRILYGKLGCG-NH2; thioether N-14) gave an IC50 of 73 nM.

In turn, `CC[C@H](C)[C@@H]1NC(=O)[C@H](CCCNC(=N)N)NC(=O)[C@H](Cc2ccc(O)cc2)NC(=O)[C@H](Cc2ccc(O)cc2)NC(=O)[C@H](CCCCN)NC(=O)[C@H](Cc2c[nH]cn2)NC(=O)[C@H](Cc2ccc(O)cc2)NC(=O)CSC[C@@H](C(=O)NCC(N)=O)NC(=O)CNC(=O)[C@H](CC(C)C)NC(=O)[C@H](CCC(=O)O)NC(=O)CNC(=O)[C@H](Cc2ccc(O)cc2)NC(=O)[C@H](CC(C)C)NC1=O` ({CH2CO}-YHKYYRILYGELGCG-NH2; thioether N-14) came in with a half-inhibitory concentration (IC50) of 89 nM.

The molecule `CC[C@H](C)[C@@H]1NC(=O)[C@H](Cc2c[nH]cn2)NC(=O)[C@H](Cc2ccc(O)cc2)NC(=O)CSC[C@@H](C(=O)NCC(N)=O)NC(=O)CNC(=O)[C@H](CC(C)C)NC(=O)[C@H](CC(N)=O)NC(=O)CNC(=O)[C@H](Cc2ccc(O)cc2)NC(=O)[C@H](CC(C)C)NC(=O)[C@H](CO)NC(=O)[C@H](C)NC(=O)[C@H](Cc2ccc(O)cc2)NC(=O)[C@H](Cc2ccc(O)cc2)NC1=O` ({CH2CO}-YHIYYASLYGNLGCG-NH2; thioether N-14) returned an IC50 of 1.4 nM.

`CC[C@H](C)[C@@H]1NC(=O)[C@H](CCCCN)NC(=O)[C@H](Cc2ccc(O)cc2)NC(=O)[C@H](Cc2ccc(O)cc2)NC(=O)[C@H](Cc2c[nH]cn2)NC(=O)[C@H](Cc2c[nH]cn2)NC(=O)[C@H](Cc2ccc(O)cc2)NC(=O)CSC[C@@H](C(=O)NCC(N)=O)NC(=O)CNC(=O)[C@H](CC(C)C)NC(=O)[C@H](CCC(=O)O)NC(=O)CNC(=O)[C@H](Cc2ccc(O)cc2)NC(=O)[C@H](CC(C)C)NC1=O` ({CH2CO}-YHHYYKILYGELGCG-NH2; thioether N-14) gave an IC50 of 116 nM.

With `CC(C)C[C@@H]1NC(=O)[C@H](CC(=O)O)NC(=O)CNC(=O)[C@H](Cc2ccc(O)cc2)NC(=O)[C@H](CC(C)C)NC(=O)[C@H](CO)NC(=O)[C@H](CCCNC(=N)N)NC(=O)[C@H](Cc2ccc(O)cc2)NC(=O)[C@H](Cc2ccc(O)cc2)NC(=O)[C@H](Cc2c[nH]cn2)NC(=O)[C@H](CCC(N)=O)NC(=O)[C@H](Cc2ccc(O)cc2)NC(=O)CSC[C@@H](C(=O)NCC(N)=O)NC(=O)CNC1=O` ({CH2CO}-YQHYYRSLYGDLGCG-NH2; thioether N-14), the IC50 is over 30000 nM.

The molecule `CC[C@H](C)[C@@H]1NC(=O)[C@H](CCCNC(=N)N)NC(=O)[C@H](Cc2ccc(O)cc2)NC(=O)[C@H](Cc2ccc(O)cc2)NC(=O)[C@H](Cc2ccc(O)cc2)NC(=O)[C@H](Cc2c[nH]cn2)NC(=O)[C@H](Cc2ccc(O)cc2)NC(=O)CSC[C@@H](C(=O)NCC(N)=O)NC(=O)CNC(=O)[C@H](CC(C)C)NC(=O)[C@H](CCC(=O)O)NC(=O)CNC(=O)[C@H](Cc2ccc(O)cc2)NC(=O)[C@H](CC(C)C)NC1=O` ({CH2CO}-YHYYYRILYGELGCG-NH2; thioether N-14) returned an IC50 of 119 nM.

In turn, `CC[C@H](C)[C@@H]1NC(=O)[C@H](CCCNC(=N)N)NC(=O)[C@H](Cc2ccc(O)cc2)NC(=O)[C@H](Cc2ccc(O)cc2)NC(=O)[C@H](CCC(=O)O)NC(=O)[C@H](Cc2c[nH]cn2)NC(=O)[C@H](Cc2ccc(O)cc2)NC(=O)CSC[C@@H](C(=O)NCC(N)=O)NC(=O)CNC(=O)[C@H](CC(C)C)NC(=O)[C@H](CCC(=O)O)NC(=O)CNC(=O)[C@H](Cc2ccc(O)cc2)NC(=O)[C@H](CC(C)C)NC1=O` ({CH2CO}-YHEYYRILYGELGCG-NH2; thioether N-14) returned an IC50 of 86 nM.

Molecule `CC[C@H](C)[C@@H]1NC(=O)[C@H](CCCNC(=N)N)NC(=O)[C@H](Cc2ccc(O)cc2)NC(=O)[C@H](Cc2ccc(O)cc2)NC(=O)[C@H](CC(C)C)NC(=O)[C@H](Cc2c[nH]cn2)NC(=O)[C@H](Cc2ccc(O)cc2)NC(=O)CSC[C@@H](C(=O)NCC(N)=O)NC(=O)CNC(=O)[C@H](CC(C)C)NC(=O)[C@H](CCC(=O)O)NC(=O)CNC(=O)[C@H](Cc2ccc(O)cc2)NC(=O)[C@H](CC(C)C)NC1=O` ({CH2CO}-YHLYYRILYGELGCG-NH2; thioether N-14) had an IC50 of 68 nM.

As to `CC[C@H](C)[C@@H]1NC(=O)[C@H](CCCNC(=N)N)NC(=O)[C@H](Cc2ccc(O)cc2)NC(=O)[C@H](Cc2ccc(O)cc2)NC(=O)[C@H](CCC(N)=O)NC(=O)[C@H](Cc2c[nH]cn2)NC(=O)[C@H](Cc2ccc(O)cc2)NC(=O)CSC[C@@H](C(=O)NCC(N)=O)NC(=O)[C@H](C(C)C)NC(=O)[C@H](CC(C)C)NC(=O)[C@H](CCC(=O)O)NC(=O)CNC(=O)[C@H](Cc2ccc(O)cc2)NC(=O)[C@H](CC(C)C)NC1=O` ({CH2CO}-YHQYYRILYGELVCG-NH2; thioether N-14), the IC50 is over 30000 nM.

On to `CC[C@H](C)[C@@H]1NC(=O)[C@H](CCCNC(=N)N)NC(=O)[C@H](Cc2ccc(O)cc2)NC(=O)[C@H](Cc2ccc(O)cc2)NC(=O)[C@H](Cc2c[nH]cn2)NC(=O)[C@H](Cc2c[nH]cn2)NC(=O)[C@H](Cc2ccc(O)cc2)NC(=O)CSC[C@@H](C(=O)NCC(N)=O)NC(=O)CNC(=O)[C@H](CC(C)C)NC(=O)[C@H](CC(N)=O)NC(=O)CNC(=O)[C@H](Cc2ccc(O)cc2)NC(=O)[C@H](CC(C)C)NC1=O` ({CH2CO}-YHHYYRILYGNLGCG-NH2; thioether N-14), for which the IC50 came out at 47 nM.
